Data taken from ChEMBL document CHEMBL5038625, “Application of the dual-tail approach for the design and synthesis of novel Thiopyrimidine-Benzenesulfonamide hybrids as selective carbonic anhydrase inhibitors” (Eur J Med Chem, 2022).

What was measured:
[1] = molecular target: Carbonic anhydrase 9 (Homo sapiens, UniProt Q16790); assay: Inhibition of human CA9 preincubated for 15 mins by phenol red dye based stopped flow CO2 hydration assay
[2] = system: MDA-MB-231; assay: Antiproliferative activity against human MDA-MB-231 cells assessed as reduction in cell viability incubated for 24 hrs by sulforhodamine B assay; format: functional, cell-based; settings: MDA-MB-231, 24 h
[3] = system: MCF7; assay: Antiproliferative activity against human MCF7 cells assessed as reduction in cell viability incubated for 24 hrs by sulforhodamine B assay; format: functional, cell-based; settings: MCF7, 24 h
[4] = system: T47D; assay: Antiproliferative activity against human T47D cells assessed as reduction in cell viability incubated for 24 hrs by sulforhodamine B assay; format: functional, cell-based
[5] = system: RXF 393; assay: Antiproliferative activity against human RXF 393 cells assessed as cell growth inhibition at 10 uM incubated for 24 hrs by sulforhodamine B assay; format: functional; settings: read-out: GI
[6] = system: HOP-92; assay: Antiproliferative activity against human HOP-92 cells assessed as cell growth inhibition at 10 uM incubated for 24 hrs by sulforhodamine B assay; format: functional; settings: read-out: GI
[7] = system: NCI-H23; assay: Antiproliferative activity against human NCI-H23 cells assessed as cell growth inhibition at 10 uM incubated for 24 hrs by sulforhodamine B assay; format: functional; settings: read-out: GI
[8] = system: LOX IMVI; assay: Antiproliferative activity against human LOX IMVI cells assessed as cell growth inhibition at 10 uM incubated for 24 hrs by sulforhodamine B assay; format: functional; settings: read-out: GI
[9] = system: SR; assay: Antiproliferative activity against human SR cells assessed as cell growth inhibition at 10 uM incubated for 24 hrs by sulforhodamine B assay; format: functional; settings: read-out: GI
[10] = system: PC-3; assay: Antiproliferative activity against human PC-3 cells assessed as cell growth inhibition at 10 uM incubated for 24 hrs by sulforhodamine B assay; format: functional; settings: read-out: GI
[11] = system: MCF7; assay: Antiproliferative activity against human MCF7 cells assessed as cell growth inhibition at 10 uM incubated for 24 hrs by sulforhodamine B assay; format: functional; settings: read-out: GI
[12] = system: UO-31; assay: Antiproliferative activity against human UO-31 cells assessed as cell growth inhibition at 10 uM incubated for 24 hrs by sulforhodamine B assay; format: functional; settings: read-out: GI
[13] = system: SF-539; assay: Antiproliferative activity against human SF-539 cells assessed as cell growth inhibition at 10 uM incubated for 24 hrs by sulforhodamine B assay; format: functional; settings: read-out: GI
[14] = system: CAKI-1; assay: Antiproliferative activity against human CAKI-1 cells assessed as cell growth inhibition at 10 uM incubated for 24 hrs by sulforhodamine B assay; format: functional; settings: read-out: GI
[15] = molecular target: Carbonic anhydrase 2 (Homo sapiens, UniProt P00918); assay: Inhibition of human CA2 preincubated for 15 mins by phenol red dye based stopped flow CO2 hydration assay
[16] = system: HCT-15; assay: Antiproliferative activity against human HCT-15 cells assessed as cell growth inhibition at 10 uM incubated for 24 hrs by sulforhodamine B assay; format: functional; settings: read-out: GI
[17] = molecular target: Carbonic anhydrase 1 (Homo sapiens, UniProt P00915); assay: Inhibition of human CA1 preincubated for 15 mins by phenol red dye based stopped flow CO2 hydration assay
Chain of Carbonic anhydrase 1 (P00915 whole entry): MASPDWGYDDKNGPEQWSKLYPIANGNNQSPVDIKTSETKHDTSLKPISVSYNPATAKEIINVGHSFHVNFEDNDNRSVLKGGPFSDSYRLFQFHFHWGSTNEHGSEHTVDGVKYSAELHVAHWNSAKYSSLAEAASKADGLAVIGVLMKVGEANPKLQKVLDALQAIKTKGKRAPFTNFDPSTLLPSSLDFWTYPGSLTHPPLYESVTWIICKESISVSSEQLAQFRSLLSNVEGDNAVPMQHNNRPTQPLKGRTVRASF

[18] = system: K562; assay: Antiproliferative activity against human K562 cells assessed as cell growth inhibition at 10 uM incubated for 24 hrs by sulforhodamine B assay; format: functional; settings: read-out: GI
[19] = system: NCI-H226; assay: Antiproliferative activity against human NCI-H226 cells assessed as cell growth inhibition at 10 uM incubated for 24 hrs by sulforhodamine B assay; format: functional; settings: read-out: GI
[20] = system: CCRF-CEM; assay: Antiproliferative activity against human CCRF-CEM cells assessed as cell growth inhibition at 10 uM incubated for 24 hrs by sulforhodamine B assay; format: functional; settings: read-out: GI
[21] = system: SN12C; assay: Antiproliferative activity against human SN12C cells assessed as cell growth inhibition at 10 uM incubated for 24 hrs by sulforhodamine B assay; format: functional; settings: read-out: GI
[22] = system: T47D; assay: Antiproliferative activity against human T47D cells assessed as cell growth inhibition at 10 uM incubated for 24 hrs by sulforhodamine B assay; format: functional; settings: read-out: GI
[23] = system: MOLT-4; assay: Antiproliferative activity against human MOLT-4 cells assessed as cell growth inhibition at 10 uM incubated for 24 hrs by sulforhodamine B assay; format: functional; settings: read-out: GI
[24] = system: HCT-116; assay: Antiproliferative activity against human HCT-116 cells assessed as cell growth inhibition at 10 uM incubated for 24 hrs by sulforhodamine B assay; format: functional; settings: read-out: GI
[25] = system: MDA-MB-231; assay: Antiproliferative activity against human MDA-MB-231 cells assessed as cell growth inhibition at 10 uM incubated for 24 hrs by sulforhodamine B assay; format: functional; settings: read-out: GI
[26] = system: UACC-62; assay: Antiproliferative activity against human UACC-62 cells assessed as cell growth inhibition at 10 uM incubated for 24 hrs by sulforhodamine B assay; format: functional; settings: read-out: GI
[27] = system: NCI-H522; assay: Antiproliferative activity against human NCI-H522 cells assessed as cell growth inhibition at 10 uM incubated for 24 hrs by sulforhodamine B assay; format: functional; settings: read-out: GI

Compound: COc1ccc(C(=O)CSc2nc(Nc3ccc(S(N)(=O)=O)cc3)c(C#N)c(-c3ccc(C)cc3)n2)cc1
- Ki [1]: 8.71 µM

Compound: NS(=O)(=O)c1ccc(Nc2cc(-c3ccccc3)nc(SCC(=O)c3ccccc3)n2)cc1
- Ki [1]: 0.0858 µM
- IC50 [2]: 26 µM
- IC50 [3]: 44.5 µM
- IC50 [4]: 44.4 µM

Compound: Cc1ccc(-c2nc(SCC(=O)c3ccccc3)nc(Nc3cccc(S(N)(=O)=O)c3)c2C#N)cc1
- inhibition of growth at 10 µM [5]: 12.6%
- inhibition of growth at 10 µM [6]: 65.2%
- inhibition of growth at 10 µM [7]: 5.21%
- inhibition of growth at 10 µM [8]: 11.3%
- Ki [1]: 7.64 µM
- inhibition of growth at 10 µM [9]: 7.6%
- inhibition of growth at 10 µM [10]: 6.2%
- inhibition of growth at 10 µM [11]: 11.9%
- inhibition of growth at 10 µM [12]: 24.4%
- inhibition of growth at 10 µM [13]: 14.1%
- inhibition of growth at 10 µM [14]: 13.6%
- Ki [15]: > 20 µM
- inhibition of growth at 10 µM [16]: 5.35%
- Ki [17]: > 20 µM

Compound: COc1ccc(C(=O)CSc2nc(Nc3ccc(S(N)(=O)=O)cc3)c(C#N)c(-c3cc(OC)ccc3OC)n2)cc1
- Ki [1]: 8.93 µM
- Ki [17]: > 20 µM

Compound: COc1ccc(C(=O)CSc2nc(Nc3cccc(S(N)(=O)=O)c3)c(C#N)c(-c3ccc(C)cc3)n2)cc1
- Ki [1]: 0.878 µM

Compound: Cc1ccc(-c2nc(SCC(=O)c3ccc(Br)cc3)nc(Nc3cccc(S(N)(=O)=O)c3)c2C#N)cc1
- inhibition of growth at 10 µM [5]: 17.6%
- inhibition of growth at 10 µM [18]: 6.32%
- inhibition of growth at 10 µM [6]: 67.2%
- inhibition of growth at 10 µM [19]: 12.7%
- inhibition of growth at 10 µM [20]: 6.1%
- inhibition of growth at 10 µM [7]: 7.38%
- inhibition of growth at 10 µM [8]: 11.8%
- inhibition of growth at 10 µM [21]: 5.02%
- Ki [1]: 0.0887 µM
- inhibition of growth at 10 µM [9]: 11.3%
- inhibition of growth at 10 µM [10]: 13.4%
- inhibition of growth at 10 µM [11]: 7.76%
- inhibition of growth at 10 µM [12]: 36.7%
- inhibition of growth at 10 µM [13]: 17.5%
- inhibition of growth at 10 µM [14]: 20%
- IC50 [2]: > 100 µM
- inhibition of growth at 10 µM [22]: 6.01%
- IC50 [3]: > 100 µM
- inhibition of growth at 10 µM [23]: 9.7%
- IC50 [4]: 60 µM
- inhibition of growth at 10 µM [16]: 5.65%
- inhibition of growth at 10 µM [24]: 8.06%
- inhibition of growth at 10 µM [25]: 6.75%

Compound: COc1ccc(C(=O)CSc2nc(Nc3ccc(S(N)(=O)=O)cc3)c(C#N)c(C(C)C)n2)cc1
- inhibition of growth at 10 µM [18]: 10.9%
- inhibition of growth at 10 µM [19]: 7.41%
- Ki [1]: 0.0918 µM
- inhibition of growth at 10 µM [9]: 11.7%
- inhibition of growth at 10 µM [12]: 16.5%
- inhibition of growth at 10 µM [26]: 8.47%
- inhibition of growth at 10 µM [13]: 5.08%
- inhibition of growth at 10 µM [14]: 5%
- IC50 [2]: 50.4 µM
- IC50 [3]: 19.8 µM
- IC50 [4]: 60 µM
- inhibition of growth at 10 µM [27]: 5.22%
- inhibition of growth at 10 µM [25]: 5.52%

Compound: NS(=O)(=O)c1cccc(Nc2cc(-c3ccccc3)nc(SCC(=O)c3ccc(Br)cc3)n2)c1
- Ki [1]: 0.525 µM

Compound: NS(=O)(=O)c1cccc(Nc2cc(-c3ccccc3)nc(SCC(=O)c3ccccc3)n2)c1
- Ki [1]: 0.724 µM

Compound: COc1ccc(OC)c(-c2nc(SCC(=O)c3ccccc3)nc(Nc3cccc(S(N)(=O)=O)c3)c2C#N)c1
- Ki [1]: 5.05 µM
- Ki [15]: > 20 µM

Compound: O=c1[nH]cc(F)c(=O)[nH]1 [FLUOROURACIL]
- IC50 [2]: 3.5 µM
- IC50 [3]: 2.46 µM
- IC50 [4]: 6.7 µM
